Measured values: patent publication US11566022B2, “3-(5-methoxy-1-oxoisoindolin-2-yl)piperidine-2,6-dione derivatives and uses thereof” (NOVARTIS AG, priority 2019, dated 2023)
Like-named read-outs stand apart in the source and are kept apart here.

Molecular target: HiBit-WIZ fusion protein (Homo sapiens, UniProt O95785+Q96SW2)
Experiment: Quantification of WIZ protein levels in HiBit tag fusion protein assay (WIZ HiBit assay in 293T cells)
Format: cell-based
Design: Dmax: dose or concentration left out as unconfirmed
[1] = HEK-293T, 100 minus Amax; 293T cells; read-out: % degradation of WIZ (100-Amax)
[2] = HEK-293T, DMSO-normalized, curve-fitted percentage of WIZ-HiBit remaining at 25 uM; 293T cells; read-out: WIZ Amax
[3] = WIZ HiBit assay in 293T cells; 10-point, 5-fold dose response, highest concentration 25 μM, about 18 hours; read-out: WIZ AC50

Sequence of HiBit-WIZ fusion protein (O95785 whole entry, the tested form may be a part): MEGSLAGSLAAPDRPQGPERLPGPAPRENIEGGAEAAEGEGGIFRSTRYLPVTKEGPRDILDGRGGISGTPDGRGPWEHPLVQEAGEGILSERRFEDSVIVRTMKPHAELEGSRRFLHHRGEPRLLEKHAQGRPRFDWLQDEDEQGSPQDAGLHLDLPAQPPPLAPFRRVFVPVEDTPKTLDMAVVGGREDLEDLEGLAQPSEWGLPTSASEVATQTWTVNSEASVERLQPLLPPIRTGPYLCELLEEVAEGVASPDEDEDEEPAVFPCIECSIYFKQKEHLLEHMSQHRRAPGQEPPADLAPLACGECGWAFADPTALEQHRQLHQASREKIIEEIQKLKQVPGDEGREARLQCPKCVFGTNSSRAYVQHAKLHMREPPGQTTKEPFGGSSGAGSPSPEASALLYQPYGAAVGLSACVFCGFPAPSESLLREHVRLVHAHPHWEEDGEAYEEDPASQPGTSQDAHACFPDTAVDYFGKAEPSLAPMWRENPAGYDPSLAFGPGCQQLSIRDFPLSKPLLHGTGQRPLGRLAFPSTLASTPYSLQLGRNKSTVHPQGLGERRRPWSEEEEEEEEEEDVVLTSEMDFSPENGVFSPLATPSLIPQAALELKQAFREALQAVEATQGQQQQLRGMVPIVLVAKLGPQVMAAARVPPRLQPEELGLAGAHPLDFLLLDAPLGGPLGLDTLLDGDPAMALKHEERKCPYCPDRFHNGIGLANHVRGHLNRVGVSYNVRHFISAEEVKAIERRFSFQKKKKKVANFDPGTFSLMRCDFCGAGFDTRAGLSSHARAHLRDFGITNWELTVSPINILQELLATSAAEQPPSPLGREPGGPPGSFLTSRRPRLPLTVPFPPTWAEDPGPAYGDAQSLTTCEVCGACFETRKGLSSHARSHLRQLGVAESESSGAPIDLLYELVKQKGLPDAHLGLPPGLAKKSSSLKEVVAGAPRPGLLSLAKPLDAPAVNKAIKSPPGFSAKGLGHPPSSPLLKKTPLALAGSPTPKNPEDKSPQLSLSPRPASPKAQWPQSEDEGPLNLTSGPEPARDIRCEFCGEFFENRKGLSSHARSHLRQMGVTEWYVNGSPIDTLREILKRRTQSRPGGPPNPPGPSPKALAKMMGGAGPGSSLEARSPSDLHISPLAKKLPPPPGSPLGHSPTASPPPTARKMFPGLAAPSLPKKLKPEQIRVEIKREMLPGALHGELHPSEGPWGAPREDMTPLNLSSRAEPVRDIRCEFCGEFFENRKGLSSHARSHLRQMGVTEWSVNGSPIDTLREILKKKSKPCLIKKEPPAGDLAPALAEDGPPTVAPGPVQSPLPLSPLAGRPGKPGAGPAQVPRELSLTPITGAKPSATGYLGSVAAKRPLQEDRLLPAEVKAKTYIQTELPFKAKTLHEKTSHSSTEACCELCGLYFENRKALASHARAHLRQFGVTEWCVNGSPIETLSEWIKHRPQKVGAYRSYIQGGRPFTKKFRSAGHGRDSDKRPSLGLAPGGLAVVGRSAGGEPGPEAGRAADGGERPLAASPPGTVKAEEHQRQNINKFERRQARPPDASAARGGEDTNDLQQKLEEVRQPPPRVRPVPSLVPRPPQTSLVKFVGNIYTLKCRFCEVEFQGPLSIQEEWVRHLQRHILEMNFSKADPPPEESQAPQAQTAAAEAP
Sequence of HiBit-WIZ fusion protein (Q96SW2 whole entry, the tested form may be a part): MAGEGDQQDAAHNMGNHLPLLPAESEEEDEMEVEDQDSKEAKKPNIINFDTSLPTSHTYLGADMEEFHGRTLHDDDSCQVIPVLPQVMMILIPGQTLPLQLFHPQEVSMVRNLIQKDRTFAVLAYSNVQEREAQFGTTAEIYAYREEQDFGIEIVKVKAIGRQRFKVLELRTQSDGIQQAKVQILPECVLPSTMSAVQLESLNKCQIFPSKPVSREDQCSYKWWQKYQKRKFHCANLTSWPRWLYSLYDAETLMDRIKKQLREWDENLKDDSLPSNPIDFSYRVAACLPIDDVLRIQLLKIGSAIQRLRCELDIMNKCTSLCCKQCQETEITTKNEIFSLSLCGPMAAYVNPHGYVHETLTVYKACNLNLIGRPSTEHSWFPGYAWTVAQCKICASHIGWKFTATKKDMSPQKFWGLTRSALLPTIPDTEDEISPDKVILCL
Sequence of HiBit-WIZ fusion protein (Q16531 whole entry partner, the tested form may be a part): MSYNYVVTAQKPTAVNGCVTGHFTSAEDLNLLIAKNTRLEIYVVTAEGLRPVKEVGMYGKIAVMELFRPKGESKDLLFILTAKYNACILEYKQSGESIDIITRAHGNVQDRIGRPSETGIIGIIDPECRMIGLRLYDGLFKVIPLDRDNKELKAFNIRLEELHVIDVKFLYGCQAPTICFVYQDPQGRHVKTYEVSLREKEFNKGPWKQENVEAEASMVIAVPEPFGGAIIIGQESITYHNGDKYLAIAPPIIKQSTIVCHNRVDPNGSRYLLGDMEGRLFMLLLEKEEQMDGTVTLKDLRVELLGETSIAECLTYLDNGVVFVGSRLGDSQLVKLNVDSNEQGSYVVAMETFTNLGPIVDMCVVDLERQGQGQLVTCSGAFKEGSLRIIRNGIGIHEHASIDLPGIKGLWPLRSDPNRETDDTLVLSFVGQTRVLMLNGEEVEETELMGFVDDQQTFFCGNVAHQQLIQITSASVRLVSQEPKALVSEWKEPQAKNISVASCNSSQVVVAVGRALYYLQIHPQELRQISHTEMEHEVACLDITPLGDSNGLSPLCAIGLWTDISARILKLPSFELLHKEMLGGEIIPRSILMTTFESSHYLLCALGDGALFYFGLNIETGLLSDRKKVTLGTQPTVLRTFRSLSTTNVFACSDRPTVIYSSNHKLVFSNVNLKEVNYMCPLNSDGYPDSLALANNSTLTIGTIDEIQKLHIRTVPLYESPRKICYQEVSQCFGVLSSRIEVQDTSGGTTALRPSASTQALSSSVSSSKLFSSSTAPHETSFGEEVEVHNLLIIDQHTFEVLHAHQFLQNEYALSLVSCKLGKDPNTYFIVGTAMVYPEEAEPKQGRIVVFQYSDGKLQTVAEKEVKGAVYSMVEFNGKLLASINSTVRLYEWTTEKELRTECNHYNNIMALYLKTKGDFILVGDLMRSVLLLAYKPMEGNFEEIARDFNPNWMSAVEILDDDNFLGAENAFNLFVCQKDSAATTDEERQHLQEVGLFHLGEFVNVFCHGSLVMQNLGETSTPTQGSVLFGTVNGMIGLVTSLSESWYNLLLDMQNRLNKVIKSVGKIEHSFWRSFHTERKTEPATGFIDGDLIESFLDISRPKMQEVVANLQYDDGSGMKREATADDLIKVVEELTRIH

Structure (SMILES) | Dmax [1] [%] | remaining activity at up to 25 µM [2] [%] | DC50 [3] [nM] | Dmax (HEK-293T, read-out: % degradation of WIZ (100-Amax), 100 minus Amax; 293T cells) [%] | remaining activity (HEK-293T, read-out: WIZ Amax, DMSO-normalized, curve-fitted percentage of WIZ-HiBit remaining at 25 uM; 293T cells) [%] | Dmax (HEK-293T, read-out: % degradation of WIZ (100-Amax)) [%] | remaining activity (HEK-293T, read-out: WIZ Amax) [%] | DC50 (read-out: WIZ AC50; WIZ HiBit assay in 293T cells; 10-point, 5-fold dose response, highest concentration 25 μM, about 18 hours) [nM]
CC(C)(C)c1ccc(CN2CCCC[C@@H]2COc2ccc3c(c2)CN(C2CCC(=O)NC2=O)C3=O)cc1 (some centres unmarked) [Compound I-158] | 94.1 | 5.93 | 0.083 |  |  |  |  | 
Cc1nnsc1CN1CCCC[C@@H]1COc1ccc2c(c1)CN(C1CCC(=O)NC1=O)C2=O (some centres unmarked) [Compound I-50ep] | 12.4 | 87.6 | > 25000 |  |  |  |  | 
O=C1CCC(N2Cc3cc(OC[C@H]4CCCCN4Cc4ccc(C(=O)N5CCCC5)cc4)ccc3C2=O)C(=O)N1 (some centres unmarked) [Compound I-50bs] | 94.5 | 5.5 | 18 |  |  |  |  | 
O=C1CCC(N2Cc3cc(OC[C@H]4CCCCN4Cc4cnn(Cc5ccccc5)c4)ccc3C2=O)C(=O)N1 (some centres unmarked) [Compound I-50bv] | 99.9 | 0.1 | 1 |  |  |  |  | 
O=C1CCC(N2Cc3cc(OC[C@H]4CCCCN4Cc4cc(-n5nnnc5C(F)(F)F)ccc4O)ccc3C2=O)C(=O)N1 (some centres unmarked) [Compound I-50ei] | 31.4 | 68.6 | > 25000 |  |  |  |  | 
O=C1CCC(N2Cc3cc(OC[C@@H]4CCCCN4C(=O)c4cnnn4-c4ccccc4)ccc3C2=O)C(=O)N1 (some centres unmarked) [Compound I-72c] | 20.6 | 79.4 | > 25000 |  |  |  |  | 
O=C1CCC(N2Cc3cc(OC[C@H]4CCCCN4Cc4cn[nH]c4)ccc3C2=O)C(=O)N1 (some centres unmarked) [Compound I-50an] | 82.2 | 17.8 | 1710 |  |  |  |  | 
Cc1nc(-c2cccc(CN3CCCC[C@H]3COc3ccc4c(c3)CN(C3CCC(=O)NC3=O)C4=O)c2)no1 (some centres unmarked) [Compound I-50bb] | 56.8 | 43.2 | 18300 |  |  |  |  | 
CC(C)(C)OC(=O)NC1(CN2CCCC[C@@H]2COc2ccc3c(c2)CN(C2CCC(=O)NC2=O)C3=O)CCCC1 (some centres unmarked) [Compound I-50cf] | 38.1 | 61.9 | > 25000 |  |  |  |  | 
CCN1CCN(c2ccc(F)cc2CN2CCCC[C@@H]2COc2ccc3c(c2)CN(C2CCC(=O)NC2=O)C3=O)CC1 (stereo partly drawn) [Compound I-169, 3-(5-(((R)-1-(2-(4-ethylpiperazin-1-yl)-5-fluorobenzyl)piperidin-2-yl)methoxy)-1-oxoisoindolin-2-yl)piperidine-2,6-dione] |  |  | 34 | 84.6 | 15.4 |  |  | 
CC(C)N1CCC(CC(=O)N2CCCC[C@H]2COc2ccc3c(c2)CN(C2CCC(=O)NC2=O)C3=O)CC1 (some centres unmarked) [Compound I-72fe] | 18.5 | 81.5 | > 25000 |  |  |  |  | 
O=C1CCC(N2Cc3cc(OC[C@H]4CCCCN4CC4COC4)ccc3C2=O)C(=O)N1 (some centres unmarked) [Compound I-202] | 58.7 | 41.3 | 83 |  |  |  |  | 
NS(=O)(=O)c1ccc(CN2CCCC[C@H]2COc2ccc3c(c2)CN(C2CCC(=O)NC2=O)C3=O)cc1 (some centres unmarked) [Compound I-50de] |  |  |  |  |  | 58.5 | 41.5 | 18400
O=C1CCC(N2Cc3cc(OC[C@H]4CCCCN4Cc4ccc(C5(C(F)(F)F)CC5)cc4)ccc3C2=O)C(=O)N1 (stereo partly drawn) [Compound I-173, 3-(1-oxo-5-(((R)-1-(4-(1-(trifluoromethyl)cyclopropyl)benzyl)piperidin-2-yl)methoxy)isoindolin-2-yl)piperidine-2,6-dione] | 94.3 | 5.71 | 0.22 |  |  |  |  | 
O=C1CCC(N2Cc3cc(OC[C@@H]4CCCCN4C(=O)c4cccnc4N4CCCC4)ccc3C2=O)C(=O)N1 (some centres unmarked) [Compound I-72gb] | 23.9 | 76.1 | > 25000 |  |  |  |  | 
O=C1CCC(N2Cc3cc(OC[C@@H]4CCCCN4C(=O)c4ccccc4OC(F)(F)F)ccc3C2=O)C(=O)N1 (some centres unmarked) [Compound I-72dv] | 13.3 | 86.7 | > 25000 |  |  |  |  | 
CC(C)(C)c1cc(CC(=O)N2CCCC[C@H]2COc2ccc3c(c2)CN(C2CCC(=O)NC2=O)C3=O)on1 (some centres unmarked) [Compound I-72hj] | 0.7 | 99.3 | > 25000 |  |  |  |  | 
CC(C)Oc1ccccc1C(=O)N1CCCC[C@H]1COc1ccc2c(c1)CN(C1CCC(=O)NC1=O)C2=O (some centres unmarked) [Compound I-72jy] | 11.3 | 88.7 | > 25000 |  |  |  |  | 
Cn1cncc1CN1CCCC[C@@H]1COc1ccc2c(c1)CN(C1CCC(=O)NC1=O)C2=O (some centres unmarked) [Compound I-50df] | 55.9 | 44.1 | 11100 |  |  |  |  | 
COC1CCC(CN2CCCCC2C(C)Oc2ccc3c(c2)CN(C2CCC(=O)NC2=O)C3=O)CC1 (single isomer, unassigned) [Compound I-219, 3-(5-(1-(1-((4-methoxycyclohexyl)methyl)piperidin-2-yl)ethoxy)-1-oxoisoindolin-2-yl)piperidine-2,6-dione] | 73.9 | 26.1 | 1400 |  |  |  |  | 

Structure (SMILES) | Dmax [1] [%] | remaining activity at up to 25 µM [2] [%] | DC50 [3] [nM] | Dmax (HEK-293T, read-out: % degradation of WIZ (100-Amax), 100 minus Amax; 293T cells) [%] | remaining activity (HEK-293T, read-out: WIZ Amax, DMSO-normalized, curve-fitted percentage of WIZ-HiBit remaining at 25 uM; 293T cells) [%] | Dmax (HEK-293T, read-out: % degradation of WIZ (100-Amax)) [%] | remaining activity (HEK-293T, read-out: WIZ Amax) [%] | DC50 (read-out: WIZ AC50; WIZ HiBit assay in 293T cells; 10-point, 5-fold dose response, highest concentration 25 μM, about 18 hours) [nM]
CC(C)(C)OC(=O)N1CCC(c2ccccc2CN2CCCC[C@@H]2COc2ccc3c(c2)CN(C2CCC(=O)NC2=O)C3=O)CC1 (stereo partly drawn) [Compound I-122, Tert-butyl 4-(2-(((2R)-2-(((2-(2,6-dioxopiperidin-3-yl)-1-oxoisoindolin-5-yl)oxy)methyl)piperidin-1-yl)methyl)phenyl)piperidine-1-carboxylate] | 87.6 | 12.4 | 51 |  |  |  |  | 
CC(C)Oc1cccc(C(=O)N2CCCC[C@H]2COc2ccc3c(c2)CN(C2CCC(=O)NC2=O)C3=O)c1 (some centres unmarked) [Compound I-72ju] | 14.5 | 85.5 | > 25000 |  |  |  |  | 
O=C1CCC(N2Cc3cc(OC[C@H]4CCCCN4Cc4ccc(N5CCOCC5)cc4)ccc3C2=O)C(=O)N1 (some centres unmarked) [Compound I-50dx] | 98 | 2 | 2 |  |  |  |  | 
CCN1CCC(c2ccccc2CN2CCCC[C@@H]2COc2ccc3c(c2)CN(C2CCC(=O)NC2=O)C3=O)CC1 (stereo partly drawn) [Compound I-124, 3-(5-(((R)-1-(2-(1-ethylpiperidin-4-yl)benzyl)piperidin-2-yl)methoxy)-1-oxoisoindolin-2-yl)piperidine-2,6-dione] | 94.4 | 5.61 | 40 |  |  |  |  | 
Cn1c(CN2CCCC[C@H]2COc2ccc3c(c2)CN(C2CCC(=O)NC2=O)C3=O)nc2ccccc21 (some centres unmarked) [Compound I-50ap] | 30.1 | 69.9 | > 25000 |  |  |  |  | 
Cc1nc(C(=O)N2CCCC[C@H]2COc2ccc3c(c2)CN(C2CCC(=O)NC2=O)C3=O)c(C)s1 (some centres unmarked) [Compound I-72fp] | 9.5 | 90.5 | > 25000 |  |  |  |  | 
O=C(O)Cn1cnc(CN2CCCC[C@@H]2COc2ccc3c(c2)CN(C2CCC(=O)NC2=O)C3=O)c1 (some centres unmarked) [Compound I-50da] | 65.1 | 34.9 | 5130 |  |  |  |  | 
O=C1CCC(N2Cc3cc(OC[C@@H]4CCCCN4C(=O)c4ccnnc4)ccc3C2=O)C(=O)N1 (some centres unmarked) [Compound I-72kc] | 9.4 | 90.6 | > 25000 |  |  |  |  | 
O=C1CCC(N2Cc3cc(OC[C@@H]4CCCCN4Cc4ccc(O)c(Cl)c4)ccc3C2=O)C(=O)N1 (some centres unmarked) [Compound I-50b] | 83 | 17 | 1480 |  |  |  |  | 
O=C1CCC(N2Cc3cc(OC[C@@H]4CCCCN4C(=O)[C@H]4CCN(Cc5ccccc5)C4)ccc3C2=O)C(=O)N1 (some centres unmarked) [Compound I-72cy] | 15.2 | 84.8 | > 25000 |  |  |  |  | 
Cn1ccc2c(CN3CCCC[C@H]3COc3ccc4c(c3)CN(C3CCC(=O)NC3=O)C4=O)cccc21 (some centres unmarked) [Compound I-50t] | 85.2 | 14.8 | 269 |  |  |  |  | 
Cc1cc(O)cc(C(=O)N2CCCC[C@H]2COc2ccc3c(c2)CN(C2CCC(=O)NC2=O)C3=O)c1 (some centres unmarked) [Compound I-72hi] | 13.8 | 86.2 | > 25000 |  |  |  |  | 
O=C1CCC(N2Cc3cc(OC[C@@H]4CCCCN4Cc4n[nH]c5ccc(Oc6cccnc6)cc45)ccc3C2=O)C(=O)N1 (some centres unmarked) [Compound I-50af] | 57.2 | 42.8 | 21100 |  |  |  |  | 
Cn1nnc2cc(CN3CCCC[C@@H]3COc3ccc4c(c3)CN(C3CCC(=O)NC3=O)C4=O)ccc21 (some centres unmarked) [Compound I-50y] | 85.2 | 14.8 | 179 |  |  |  |  | 
O=C1CCC(N2Cc3cc(OC[C@H]4CCCCN4Cc4cccc(F)c4O)ccc3C2=O)C(=O)N1 (some centres unmarked) [Compound I-143] | 37.4 | 62.6 |  |  |  |  |  | 
COc1ccc(CN2CCCC[C@@H]2COc2ccc3c(c2)CN(C2CCC(=O)NC2=O)C3=O)c(OC)c1 (stereo partly drawn) [Compound I-131, 3-(5-(((R)-1-(2,4-dimethoxybenzyl)piperidin-2-yl)methoxy)-1-oxoisoindolin-2-yl)piperidine-2,6-dione] | 88.9 | 11.1 | 0.52 |  |  |  |  | 
O=C1CCC(N2Cc3cc(OC[C@H]4CCCCN4Cc4ccc[nH]c4=O)ccc3C2=O)C(=O)N1 (some centres unmarked) [Compound I-50dp] | 65.5 | 34.5 | 6840 |  |  |  |  | 
Cc1c(-c2ccccc2)n[nH]c1C(=O)N1CCCC[C@H]1COc1ccc2c(c1)CN(C1CCC(=O)NC1=O)C2=O (some centres unmarked) [Compound I-72by] | 52 | 48 | 19800 |  |  |  |  | 
CCCc1cc(C(=O)N2CCCC[C@H]2COc2ccc3c(c2)CN(C2CCC(=O)NC2=O)C3=O)no1 (some centres unmarked) [Compound I-72au] | 39.9 | 60.1 | > 25000 |  |  |  |  | 
CC(C)Cn1cc(CN2CCCC[C@H]2COc2ccc3c(c2)CN(C2CCC(=O)NC2=O)C3=O)cn1 (some centres unmarked) [Compound I-50ci] | 83.2 | 16.8 | 306 |  |  |  |  | 
